According to ChEMBL document CHEMBL3813663, “Aryl morpholino triazenes inhibit cytochrome P450 1A1 and 1B1” (Bioorg Med Chem Lett, 2016):

How the values were obtained:
Cytochrome P450 1A1 = Cytochrome P450 1A1 (Homo sapiens, UniProt P04798)
Description: Inhibition of recombinant human CYP1A1 expressed in Escherichia coli DH5aplha cells assessed as O-deethylation of ethoxyresorufin in presence of NADPH measured after 2 mins by spectrofluorometric method

Cytochrome P450 1B1 = molecular target: T1, Cytochrome P450 1B1 (Homo sapiens, UniProt Q16678)
T1 sequence (Q16678 whole entry): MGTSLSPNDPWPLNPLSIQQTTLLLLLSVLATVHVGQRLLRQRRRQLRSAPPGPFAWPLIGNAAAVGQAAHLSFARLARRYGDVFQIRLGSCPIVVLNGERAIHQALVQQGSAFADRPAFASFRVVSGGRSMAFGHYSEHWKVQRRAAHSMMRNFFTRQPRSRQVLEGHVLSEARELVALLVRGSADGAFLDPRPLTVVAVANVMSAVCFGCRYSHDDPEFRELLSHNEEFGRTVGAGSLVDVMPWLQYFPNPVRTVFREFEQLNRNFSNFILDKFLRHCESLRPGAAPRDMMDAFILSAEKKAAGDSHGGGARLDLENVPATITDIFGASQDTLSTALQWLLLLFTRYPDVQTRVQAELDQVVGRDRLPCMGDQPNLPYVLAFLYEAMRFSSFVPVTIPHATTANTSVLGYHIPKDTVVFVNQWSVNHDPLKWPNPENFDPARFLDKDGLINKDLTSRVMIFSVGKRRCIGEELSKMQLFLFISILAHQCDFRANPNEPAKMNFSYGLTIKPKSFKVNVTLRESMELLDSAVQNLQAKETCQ
Description: Inhibition of recombinant human CYP1B1 expressed in Escherichia coli DH5aplha cells assessed as O-deethylation of ethoxyresorufin in presence of NADPH measured after 2 mins by spectrofluorometric method

CYP1A1 = CYP1A1 (Homo sapiens, UniProt P04798); test: in vitro
Chain of CYP1A1 (P04798 whole entry): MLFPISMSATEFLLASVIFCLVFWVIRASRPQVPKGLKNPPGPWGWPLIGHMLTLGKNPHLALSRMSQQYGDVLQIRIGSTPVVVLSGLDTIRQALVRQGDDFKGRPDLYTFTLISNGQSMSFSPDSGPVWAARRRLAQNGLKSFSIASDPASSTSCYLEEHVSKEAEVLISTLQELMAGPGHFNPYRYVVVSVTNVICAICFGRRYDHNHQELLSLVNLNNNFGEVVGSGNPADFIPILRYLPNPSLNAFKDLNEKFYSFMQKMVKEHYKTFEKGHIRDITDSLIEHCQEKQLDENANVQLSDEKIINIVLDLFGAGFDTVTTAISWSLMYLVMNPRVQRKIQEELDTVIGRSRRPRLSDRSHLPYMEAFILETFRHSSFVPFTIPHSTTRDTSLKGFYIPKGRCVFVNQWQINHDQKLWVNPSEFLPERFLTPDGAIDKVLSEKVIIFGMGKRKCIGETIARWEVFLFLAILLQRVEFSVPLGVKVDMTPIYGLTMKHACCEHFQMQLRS
Description: Inhibition of recombinant human CYP1A1 expressed in Escherichia coli DH5aplha cells assessed as O-deethylation of ethoxyresorufin in presence of NADPH at 100 uM measured after 2 mins by spectrofluorometric method

CYP1B1 = molecular target: T2, CYP1B1 (Homo sapiens, UniProt Q16678); test: in vitro
T2 sequence (Q16678 whole entry): T1 sequence (Q16678 whole entry)
Description: Inhibition of recombinant human CYP1B1 expressed in Escherichia coli DH5aplha cells assessed as O-deethylation of ethoxyresorufin in presence of NADPH at 100 uM measured after 2 mins by spectrofluorometric method

[1] = probe ethoxyresorufin (O-deethylation)

Chain of Cytochrome P450 1A1 (P04798 whole entry): as above

Row | Structure (SMILES) | IC50 (Cytochrome P450 1A1) [µM] | IC50 (Cytochrome P450 1B1) [µM] | activity at 2 min, 100 µM (CYP1A1; [1]) [%] | activity at 2 min, 100 µM (CYP1B1; [1]) [%] | activity at 2 min, 100 µM (CYP1A1) [%] | activity at 2 min, 100 µM (CYP1B1) [%]
1 | O=C(O)c1ccc(/N=N/N2CCOCC2)cc1 | 167 | 400 | 67 | 81 |  | 
2 | C1COCCN1 [MORPHOLINE] |  |  |  |  | 91 | 100
3 | Oc1ccc(/C=C/c2cc(O)cc(O)c2)cc1 [RESVERATROL] | 34 | 55 | 11 |  |  | 56
4 | Nc1ccc(C(=O)O)cc1 [AMINOBENZOIC ACID] |  | > 120 | 100 | 75 |  | 
5 | COc1cc(/N=N/N2CCOCC2)cc(OC)c1OC | 10 | 18 | 8 | 14 |  | 
6 | c1ccc(/N=N/N2CCOCC2)cc1 | 120 | 163 | 56 | 74 |  | 
7 | Nc1ccc([N+](=O)[O-])cc1 [4-NITROANILINE] |  |  | 100 | 92 |  | 
8 | CC(=O)c1ccc(/N=N/N2CCOCC2)cc1 | 82 |  | 70 | 100 |  | 
9 | Nc1ccccc1 [ANILINE] |  |  | 100 | 100 |  | 
10 | COc1cc(N)cc(OC)c1OC |  |  | 95 | 100 |  | 
11 | O=[N+]([O-])c1ccc(/N=N/N2CCOCC2)cc1 | 115 | 2 | 79 |  |  | 16
12 | Nc1ccc(Br)cc1 [4-BROMOANILINE] |  |  | 100 | 94 |  | 
13 | Brc1ccc(/N=N/N2CCOCC2)cc1 | 63 | 7 |  | 59 | 53 | 
